According to patent EP4635945A1, “CRYSTAL FORM OF PROXIMOD, PREPARATION METHOD THEREFOR, AND USE THEREOF” (Jiankuan (Suzhou) Biotechnology Co., Ltd, priority 2022, dated 2024):
“Also recorded” adds a separate entry of the source.

Tests used:
Type in all cases: physicochemical
[1] = Mechanical stability: grinding in agate mortar, XRPD; settings: 50 mg ground with an agate mortar for 5 minutes; hydrochloride
Description: The samples before and after ground were detected by XRPD.

[2] = Microscopic morphology and particle size; settings: microscopy; hydrochloride
Description: (§1) In the examples of the present application, the instrument used for the X-ray powder diffraction test is the D2 Phaser produced by Bruker. The instrument used for the differential scanning calorimetry test is the differential scanning calorimeter DSC 250 produced by TA Instruments. The instrument used for the thermogravimetric analysis is the thermogravimetric analyzer TGA 55 produced by TA Instruments. The instrument used for the FT-IR test is the Fourier infrared spectrometer ID1-summit produced by Thermo. The instrument used for the dynamic vapor sorption test is the DVS Intrinsic produced by Surface Measurement Systems (SMS). The instrument used for the microscopy is the microscope NJF-120A produced by Suzhou Nanguang Electronic Technology Co., Ltd.

[3] = Hygroscopicity by dynamic vapor sorption (DVS)
Description: as §1

[4] = Dynamic solubility in biorelevant media and buffers at 37 °C (HPLC, XRPD of solids); settings: for solubility at 1 h / solubility at 4 h / solubility at 24 h / solubility at 2 h: thermodynamic from solid
Experimental: (§2) After 1 hour/2 hours/4 hours/24 hours, the saturated solutions were obtained by filtration. The actual concentrations of the samples in the saturated solutions were determined by high-performance liquid chromatography (HPLC) (the filtered solutions were diluted as needed), and the crystal forms of the solids before and after the experiment were characterized by XRPD to check whether phase changes occurred.

[5] = Compressibility: tableting, hardness and tensile strength; settings: die with a diameter of 6 mm
Experimental: In this experiment, a die with a diameter of 6 mm was used. The drug substance and the drug substance + excipient were tableted under the same pressure, respectively. After the elasticity of the prepared tablets was restored, the radial crushing force F, diameter D, and thickness L of the tablets were measured. The tensile strength of the tablets was calculated according to the following formula: Ts = 2F/IIDL.

[6] = Adhesiveness: PE bag adhesive rate; settings: flipped at 5 rpm, 10 minutes in each direction; hydrochloride
Experimental: The bags were sealed, flipped at a rotational speed of 5 rpm for 10 minutes, and continued to be flipped in a different flipping direction at a fixed rotational speed for 10 minutes. The materials were poured out of the bags, and the materials remaining in the bags were accurately weighed to calculate the adhesive rate.
The adhesive rate was calculated according to the following formula: Adhesive rate = (initialmaterialweight-remainingmaterialweight)/contact surface area. [formula]

[7] = Fluidity: angle of repose, bulk and tap density, Hausner ratio; settings: hydrochloride
Experimental: This experiment was performed by using a tap density tester according to the fixed-volume method. The specific operations are as follows: The weighed powder, with a volume of 50 mL, was loaded into a graduated cylinder, and the graduated cylinder was secured onto a support. The graduated cylinder was set to be vibrated at 55 ± 5 vibrations per minute for 6-8 minutes. The volume change of the powder was measured in a measuring cup. The ratio of the weight of the powder to the volume (50 mL) before tapping is the bulk density of the powder, and the ratio of the weight of the powder to the volume after tapping is the tapped density of the powder.
The Hausner ratio and the compression degree were converted in the following methods. Hausner ratio = tap density/bulk density [formula] Compression degree = (tapdensity−bulkdensity)/tap density [formula]
This experiment was performed by a pouring method, and the angles of repose of the drug substances of the two crystal forms were measured in combination with a residual cone method to analyze their fluidities. The specific operations are as follows: The powder was poured onto the center of a disk with a specific diameter, and when the material on the slope of the powder pile began to flow freely out along the periphery of the disk, the pouring of the powder was stopped. The height (h) of the cone was measured, and the angle of repose was calculated in combination with the diameter (2r) of the disk, that is, tanQ = h/r.

[8] = Intrinsic dissolution of tableted crystal forms; settings: hydrochloride
[9] = Equilibrium solubility in organic solvents at room temperature (HPLC, XRPD of solids); settings: organic solvent or mixture, thermodynamic from solid, 24 hours of equilibrium
Experimental: as §2, with “24 hours of equilibrium,” for “1 hour/2 hours/4 hours/24 hours,”, “contents” for “actual concentrations”

[10] = FaSSIF (pH of 8.0), 1 hour, hydrochloride
[11] = FaSSIF (pH of 8.0), 2 hours, hydrochloride
[12] = pH = 4.0 acetic acid-sodium acetate buffer, 2 hours, hydrochloride
[13] = pH = 6.8 phosphate buffer, 4 hours
[14] = pH = 6.8 phosphate buffer, 24 hours

Crystal form after ground (XRPD) [1]: remains unchanged
Length/short diameter ratio [2]: 1-3
Microscopic morphology [2]: flaky
Weight gain by water absorption (DVS) ([3]; 24.4 °C/90% RH): 0.06%
Weight gain by water absorption (DVS) ([3]; vapor sorption at 25 °C/90% RH): 0.26%
Crystal form of the solid [4, 10]: A + Free alkali
Solubility [4, 10]: 0.022 mg/mL
Crystal form of the solid [4, 11]: A + Free alkali
Solubility [4, 11]: 0.024 mg/mL
Crystal form of the solid ([4]; FaSSIF (pH of 8.0), 4 hours): Free alkali
Solubility ([4]; FaSSIF (pH of 8.0), 4 hours, hydrochloride): 0.018 mg/mL
Crystal form of the solid ([4]; FaSSIF (pH of 8.0), 24 hours): Free alkali
Solubility ([4]; FaSSIF (pH of 8.0), 24 hours, hydrochloride): 0.016 mg/mL
Solubility ([4]; FeSSIF (pH of 5.0), 4 hours, hydrochloride): 0.34 mg/mL
Crystal form of the solid ([4]; FeSSIF (pH of 5.0), 24 hours): no crystal form change
Crystal form of the solid ([4]; SGF (pH of 1.0), 1 hour): A + F
Crystal form of the solid ([4]; SGF (pH of 1.0), 2 hours): A + F
Crystal form of the solid ([4]; SGF (pH of 1.0), 4 hours): A + F
Crystal form of the solid ([4]; SGF (pH of 1.0), 24 hours): A + F
Crystal form of the solid ([4]; Water, 1 hour, hydrochloride): A + F
Crystal form of the solid ([4]; Water, 2 hours, hydrochloride): A + F
Crystal form of the solid ([4]; Water, 4 hours, hydrochloride): A + F
Solubility ([4]; Water, 4 hours, hydrochloride): 0.99 mg/mL
Crystal form of the solid ([4]; Water, 24 hours, hydrochloride): A + F
solubility at 1 h ([4]; acetic acid-sodium acetate buffer, pH 4, aqueous buffer, pH = 4.0 acetic acid-sodium acetate buffer, 1 hour): 1690 µg/mL
solubility at 4 h ([4]; acetic acid-sodium acetate buffer, pH 4, aqueous buffer, pH = 4.0 acetic acid-sodium acetate buffer, 4 hours): 1360 µg/mL
solubility at 24 h ([4]; acetic acid-sodium acetate buffer, pH 4, aqueous buffer, pH = 4.0 acetic acid-sodium acetate buffer, 24 hours): 4110 µg/mL
solubility at 1 h ([4]; fed state simulated intestinal fluid (FeSSIF), pH 5, fessif, FeSSIF (pH of 5.0), 1 hour): 1930 µg/mL
solubility at 2 h ([4]; fed state simulated intestinal fluid (FeSSIF), pH 5, fessif, FeSSIF (pH of 5.0), 2 hours): 2110 µg/mL
solubility at 24 h ([4]; fed state simulated intestinal fluid (FeSSIF), pH 5, fessif, FeSSIF (pH of 5.0), 24 hours): 3720 µg/mL
solubility at 1 h ([4]; hydrochloric acid aqueous solution, pH 1, simulated gastric fluid, pH = 1.0 hydrochloric acid aqueous solution, 1 hour): 280 µg/mL
solubility at 2 h ([4]; hydrochloric acid aqueous solution, pH 1, simulated gastric fluid, pH = 1.0 hydrochloric acid aqueous solution, 2 hours): 280 µg/mL
solubility at 4 h ([4]; hydrochloric acid aqueous solution, pH 1, simulated gastric fluid, pH = 1.0 hydrochloric acid aqueous solution, 4 hours): 330 µg/mL
solubility at 24 h ([4]; hydrochloric acid aqueous solution, pH 1, simulated gastric fluid, pH = 1.0 hydrochloric acid aqueous solution, 24 hours): 400 µg/mL
Crystal form of the solid ([4]; pH = 1.0 hydrochloric acid aqueous solution, 1 hour): A + F
Crystal form of the solid ([4]; pH = 1.0 hydrochloric acid aqueous solution, 2 hours): A + F
Crystal form of the solid ([4]; pH = 1.0 hydrochloric acid aqueous solution, 4 hours): A + F
Crystal form of the solid ([4]; pH = 1.0 hydrochloric acid aqueous solution, 24 hours): A + F
Crystal form of the solid ([4]; pH = 4.0 acetic acid-sodium acetate buffer, 1 hour, hydrochloride): A + F
Crystal form of the solid [4, 12]: A + F
Solubility [4, 12]: 1.13 mg/mL
Crystal form of the solid ([4]; pH = 4.0 acetic acid-sodium acetate buffer, 4 hours, hydrochloride): A + F
Crystal form of the solid ([4]; pH = 4.0 acetic acid-sodium acetate buffer, 24 hours, hydrochloride): A + F
Crystal form of the solid ([4]; pH = 6.8 phosphate buffer, 1 hour): Free alkali
Crystal form of the solid ([4]; pH = 6.8 phosphate buffer, 2 hours): Free alkali
Solubility ([4]; pH = 6.8 phosphate buffer, 2 hours, hydrochloride): Not detected
Crystal form of the solid [4, 13]: Free alkali
Solubility [4, 13]: Not detected
Crystal form of the solid [4, 14]: Free alkali
Solubility [4, 14]: Not detected
solubility at 1 h ([4]; phosphate buffer, pH 6.8, aqueous buffer, pH = 6.8 phosphate buffer, 1 hour): 0.16 µg/mL
solubility at 1 h ([4]; simulated gastric fluid (SGF), pH 1, simulated gastric fluid, SGF (pH of 1.0), 1 hour): 260 µg/mL
solubility at 2 h ([4]; simulated gastric fluid (SGF), pH 1, simulated gastric fluid, SGF (pH of 1.0), 2 hours): 250 µg/mL
solubility at 4 h ([4]; simulated gastric fluid (SGF), pH 1, simulated gastric fluid, SGF (pH of 1.0), 4 hours): 280 µg/mL
solubility at 24 h ([4]; simulated gastric fluid (SGF), pH 1, simulated gastric fluid, SGF (pH of 1.0), 24 hours): 460 µg/mL
solubility at 1 h ([4]; water, 1 hour): 2020 µg/mL
solubility at 2 h ([4]; water, 2 hours): 2570 µg/mL
solubility at 24 h ([4]; water, 24 hours): 3290 µg/mL
Tensile strength Ts ([5]; Ts = 2F/IIDL, hydrochloride): 0.17
Hardness ([5]; same pressure, hydrochloride): 5 N
Experimental phenomena ([5]; tableting): Severe punch sticking
PE bag adhesive rate [6]: 0.0007 g/cm^2
Compression degree ([7]; (tap density − bulk density)/tap density): 33.0% 33.0%
Bulk density ([7]; fixed-volume method, 50 mL): 0.34 g/mL
Tap density ([7]; fixed-volume method, after tapping): 0.50 g/mL
Angle of repose ([7]; pouring method with residual cone method): 56.25 °
Hausner ratio ([7]; tap density/bulk density): 1.5
Dissolution amount ([8]; Medium Water, 5 min): 0.0005 mg/mL
Dissolution amount ([8]; Medium Water, 10 min): 0.0010 mg/mL
Dissolution amount ([8]; Medium Water, 30 min): 0.0011 mg/mL
Dissolution amount ([8]; Medium Water, 45 min): 0.0003 mg/mL
Dissolution amount ([8]; Medium Water, 60 min): 0.0010 mg/mL
Dissolution amount ([8]; Medium Water, 90 min): 0.0012 mg/mL
Dissolution amount ([8]; Medium pH = 4.0, flow rate 4 mL/minute, 5 min): 0.0346 mg/mL
Dissolution amount ([8]; Medium pH = 4.0, flow rate 4 mL/minute, 10 min): 0.0462 mg/mL
Dissolution amount ([8]; Medium pH = 4.0, flow rate 4 mL/minute, 30 min): 0.0481 mg/mL
Dissolution amount ([8]; Medium pH = 4.0, flow rate 4 mL/minute, 45 min): 0.0477 mg/mL
Dissolution amount ([8]; Medium pH = 4.0, flow rate 4 mL/minute, 60 min): 0.0487 mg/mL
Dissolution amount ([8]; Medium pH = 4.0, flow rate 4 mL/minute, 90 min): 0.0479 mg/mL
solubility at 24 h ([9]; acetone): 43 µg/mL
solubility at 24 h ([9]; ethanol): 9990 µg/mL
solubility at 24 h ([9]; ethyl acetate): 11 µg/mL
SMILES: CCCc1nc(-c2ccc(-c3ccc(CCC(N)(CO)CO)cc3)cc2)co1.Cl [Crystal form A, 2-amino-2-{2-(4'-(2-propyloxazol-4-yl)-[1,1'-biphenyl]-4-yl)ethyl}-1,3-propanediol hydrochloride]
Hygroscopicity description ([3]; DVS, 90% RH, hydrochloride): no or almost no hygroscopicity; also recorded: slightly hygroscopic
